Source: patent US20240025886A1, “INHIBITORS OF IGF2BP1-RNA BINDING” (YISSUM RESEARCH DEVELOPMENT COMPANY OF THE HEBREW …, priority 2020, published 2024)

Legend:
[1] = tested on: control luciferase in RKO cells; assay: Control (wild type) luciferase in RKO cells; assay type: cell-based; conditions: 50 mM 7773
Protocol: (§1) The RKO cells were seeded in DMEM with 10% calf serum 24 hrs prior to the transfection. Transfection was done using Lipofectamine 2000 with reporter plasmids and Renilla-luciferase expressing vector (as internal control). After 24 hrs, cells were lysed using passive lysis buffer (Promega catalog #E1941). The lysates were cleared by centrifugation and its […] volume was mixed with […] of luciferase substrate solution for luminescence recording which was followed by addition of […] of Stop-glo solution (Promega catalog #E1910) with an additional luminescence reading. Both readings were detected by using GloMax 20/20 Luminometer (Promega), and the final value for each sample was the ratio of their two respective readings. To test the effects of 7773, transfected cells with reporter plasmids were washed with PBS after 24 hrs of transfection and incubated with medium containing 7773.

ES2 cells = assay: Real-time PCR of steady state RNA levels in ES2 cells; assay type: cell-based, human; parameters: dose or concentration left out as unconfirmed
Protocol: Primers were calibrated for several Igf2bp1 RNA targets (Table 3): […]
Cells were grown for 12 hours in 12 well plates prior to incubation with the compound at different concentrations for an additional 12 or 24 hours. Total RNA was then extracted using EZ-RNA total RNA isolation kit (Biological Industries) and cDNA prepared from the RNA using the First Strand cDNA Synthesis kit (Quanta bio). Real time PCR was performed with Fast SYBR Green Master Mix (Thermo Fisher Scientific), and cDNA expression analyzed with the Bio-Rad CFX Manager 3.1.

Igf2bp2 = target: T1, Igf2bp2 (Homo sapiens, UniProt Q9Y6M1); assay: MST binding to Igf2bp2; conditions: even at concentrations that almost saturate binding to Igf2bp1
T1 construct: His tag (C); made in house; host or cells: E. coli BL21(DE3)

H1299 cells = assay: Growth in soft agar, H1299 cells; assay type: cell-based, human; parameters: dose or concentration left out as unconfirmed; conditions: H1299, 7773
Protocol: Cells were grown for 12 hours in 6 well plates prior to incubation with the compound or DMSO for an additional 48 hours, 2000 cells were suspended in 0.3% agar-complete medium and then seeded in triplicates onto a 0.6% agar-complete medium base in a 6 well plate. After one week, the colonies were fed with 0.3% agar-complete medium, and after 2 additional weeks, imaged and quantified.

[2] = tested on: Igf2bp1 split-luciferase reporter in RKO cells; assay: Split-luciferase assay of Igf2bp1 dimerization in RKO cells; assay type: cell-based; parameters: dose or concentration left out as unconfirmed
Protocol: Vectors expressing different fragments of split luciferase reporters with flexible linker were procured from Addgene (catalog #58786, 58787, 58788 and 58789). The vectors were digested with EcoRI and XhoI. EcoRI and XhoI restriction enzyme sites were added to 5′ and 3′ ends of the coding region of IGF2BP1 respectively using PCR. The inventors constructed four split luciferase reporter vectors by cloning IGF2BP1 in different orientation with the luciferase fragments (FIG. 8B). Primers used for the amplification of IGF2BP1 were: […]
as §1, with “To test the effects of 7773, transfected cells with reporter plasmids were washed with PBS after 24 hrs of transfection and incubated with medium containing 7773.” left out

[3] = tested on: Kras protein in H1299 cells; assay: Western blot of Kras protein in H1299 cells; assay type: cell-based, human; conditions: H1299, 10 and 20 μM 7773, 48 hours
Protocol: Western blots were performed as previously described. For fluorescent westerns, cell lysates were prepared with phosphatase inhibitors (β-Glycerophosphate and Sodium orthovanadate) and a protease inhibitor (cOmplete™, Mini Protease Inhibitor Cocktail, Roche 04693124001), membranes were read using a Li-Core Odyssey laser scanner, and results analyzed using Image Studio Lite software.
The following primary antibodies were used: mouse anti-total ERK (p44/42 MAPK (Erk1/2) L34F12 Cell Signaling 4696s), mouse anti-Kras (CPTC-KRAS4B-2, DSHB) rabbit anti-dpERK, (p44/42 MAPK, Cell Signaling 4370), rabbit anti-alpha/beta tubulin (Cell Signaling 2148), goat anti-rabbit IgG-HRP (Jackson), goat anti-mouse IgG-HRP (Jackson). Secondary antibodies for fluorescent westerns: donkey anti-mouse 800 (Rockland 610-732-124), goat anti-rabbit 680 (Molecular Probes A21076).

Igf2bp1 KH12 di-domain = target: T2, Igf2bp1 KH12 di-domain (Homo sapiens, UniProt Q9NZI8); assay: MST binding to Igf2bp1 di-domain KH12
T2 construct: KH12 (V194-N369); 6xHis/GST (N, cleaved yes); made in house; host or cells: E. coli BL21(DE3)
Protocol: Recombinant full-length Igf2bp1 protein was labelled with RED-tris-NTA dye using a Monolith NT His-Tag Labelling Kit (NanoTemper) while RRM12, KH12 and KH34 di-domain peptides were labelled using the Protein Labeling Kit RED NHS 2nd generation (NanoTemper). Labelled proteins were spun at 15,000 g for 5 min to eliminate aggregates. All samples were 2× labelled protein mix of Igf2bp1 (200 nM) in PBST and were combined (1:1) with serial dilutions of compound or Kras6 RNA in binding buffer (10 mMTris pH=7.5, 100 mM NaCl, 0.1 mM EDTA, 0.06% IPEGAL, 0.02 μg/μL tRNA, 2 mM DTT, 0.1 μg/μL heparin) in final volume of 20 μL, room temperature for 15 min. Samples were then loaded into standard capillaries (NanoTemper) and read in the Monolith NT.115 scanner (NanoTemper) using the red filter with reading conditions of 95% LED power and 40% MST power, 5 sec fluorescence before, 30 sec MST on, 5 sec fluorescence after and 25 sec delay between samples. Results were analyzed using the MO Control software (NanoTemper) for curve fitting to KD.

T1 sequence (Q9Y6M1 whole entry, species assumed): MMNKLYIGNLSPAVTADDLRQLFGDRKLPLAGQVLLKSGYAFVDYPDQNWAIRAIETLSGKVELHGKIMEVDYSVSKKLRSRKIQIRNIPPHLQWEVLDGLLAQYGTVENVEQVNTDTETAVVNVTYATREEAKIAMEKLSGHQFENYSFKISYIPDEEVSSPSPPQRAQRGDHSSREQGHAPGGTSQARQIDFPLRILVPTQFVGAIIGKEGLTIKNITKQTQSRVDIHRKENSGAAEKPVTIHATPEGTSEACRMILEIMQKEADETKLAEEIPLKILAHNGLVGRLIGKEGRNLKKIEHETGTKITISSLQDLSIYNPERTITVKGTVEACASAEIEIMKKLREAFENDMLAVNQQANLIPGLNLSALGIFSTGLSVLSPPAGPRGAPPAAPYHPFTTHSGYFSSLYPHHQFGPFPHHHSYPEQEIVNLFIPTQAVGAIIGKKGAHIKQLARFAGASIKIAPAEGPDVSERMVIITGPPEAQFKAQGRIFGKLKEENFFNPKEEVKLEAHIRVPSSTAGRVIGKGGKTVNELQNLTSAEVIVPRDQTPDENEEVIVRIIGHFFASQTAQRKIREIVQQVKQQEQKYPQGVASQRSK
T2 sequence (Q9NZI8 194-369): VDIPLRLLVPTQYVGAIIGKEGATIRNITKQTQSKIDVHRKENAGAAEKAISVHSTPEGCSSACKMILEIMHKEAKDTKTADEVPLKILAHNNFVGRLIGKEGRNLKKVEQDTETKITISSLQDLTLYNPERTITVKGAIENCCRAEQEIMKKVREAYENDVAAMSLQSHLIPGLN

## O=C(c1ccc(Cn2cnnn2)cc1)N1CCCC(Nc2ccc3c(c2)OCO3)C1 (stereo not drawn) [Compound 7773]
[1]
  Activity of wild type luciferase: did not affect
ES2 cells; ES2, 7773, 12 hours
  Steady state levels of CD44, Kras, cMyc and SRF RNA: reduced
ES2 cells; ES2, 7773, 12 hours, appeared to recover after 24 hours
  Steady state level of CD44 RNA: strongly reduced
ES2 cells; ES2, 7773, 24 hours
  Steady state levels of control RNAs (not targets of Igf2bp1): not significantly affected
Igf2bp2
  Binding to Igf2bp2 (MST): did not significantly bind
H1299 cells
  Ability to form colonies in soft agar: dramatically inhibited
[2]
  Split-luciferase luminescence: significantly reduced luminescence
[3]
  Kras protein expression: dose-dependent reduction
Igf2bp1 KH12 di-domain
  Binding to KH12 (MST): no binding
